Data reported in patent US9695155B2, “Herbicidal substituted pyrimidinyloxy benzene compounds” (E. I. DU PONT DE NEMOURS AND COMPANY, priority 2013, dated 2017).

How the values were obtained:
[1] = test system: Russian thistle; test: Test D postemergence; type: in vivo, Salsola kali
Text: Seeds of plant species selected from bluegrass (annual bluegrass, Poa annua), blackgrass (Alopecurus myosuroides), canarygrass (littleseed canarygrass, Phalaris minor), chickweed (common chickweed, Stellaria media), galium (catchweed bedstraw, Galium aparine), bromegrass, downy (downy bromegrass, Bromus tectorum), field poppy (Papaver rhoeas), field violet (Viola arvensis), green foxtail (Setaria viridis), deadnettle (henbit deadnettle, Lamium amplexicaule), Italian ryegrass (Lolium multiflorum), kochia (Kochia scoparia), lambsquarters (Chenopodium album), oilseed rape (Brassica napus), pigweed (Amaranthus retroflexus), chamomile (scentless chamomile, Matricaria inodora), Russian thistle (Salsola kali), speedwell (bird's-eye speedwell, Veronica persica), spring barley (Hordeum vulgare), spring wheat (Triticum aestivum), wild buckwheat (Polygonum convolvulus), wild mustard (Sinapis arvensis), wild oat (Avena fatua), wild radish (Raphanus raphanistrum), windgrass (Apera spica-venti), winter barley (Hordeum vulgare), and winter wheat (Triticum aestivum) were planted into a silt loam soil and treated preemergence with test chemicals formulated in a non-phytotoxic solvent mixture which included a surfactant.
At the same time, these species were planted in pots containing Redi-Earth® planting medium (Scotts Company, 14111 Scottslawn Road, Marysville, Ohio 43041) comprising spaghnum peat moss, vermiculite, wetting agent and starter nutrients and treated with postemergence applications of the test chemicals formulated in the same manner. Plants ranged in height from 2 to 18 cm (1- to 4-leaf stage). Treated plants and controls were maintained in a controlled growth environment for 7 to 21 days after which time all species were compared to controls and visually evaluated. Plant response ratings, summarized in Table D, are based on a scale of 0 to 100 where 0 is no effect and 100 is complete control. A dash (-) response means no test result.

[2] = test system: nightshade; test: Test C preemergence; type: in vivo, Solanum ptycanthum; settings: for Nightshade plant response rating: preemergence, scale 0 (no effect) to 100 (complete control); for Plant response rating, Nightshade: Preemergence, 31 g ai/ha, scale 0 to 100, 0 no effect, 100 complete control
Text: (§1) Seeds of plant species selected from blackgrass (Alopecurus myosuroides), Italian ryegrass (Lolium multiflorum), wheat, winter (winter wheat, Triticum aestivum), galium (catchweed bedstraw, Galium aparine), corn (Zea mays), large (Lg) crabgrass (Digitaria sanguinalis), giant foxtail (Setaria faberii), johnsongrass (Sorghum halepense), lambsquarters (Chenopodium album), morningglory (Ipomoea coccinea), yellow nutsedge (Cyperus esculentus), pigweed (Amaranthus retroflexus), ragweed (common ragweed, Ambrosia elatior), soybean (Glycine max), barnyardgrass (Echinochloa crus-galli), oilseed rape (Brassica napus), waterhemp (common waterhemp, Amaranthus rudis), kochia (Kochia scoparia), wild oat (Avena fatua), surinam grass (Brachiaria decumbens), foxtail, green (green foxtail, Setaria viridis), goosegrass (Eleusine indica), bromegrass, downy (downy bromegrass, Bromus tectorum), nightshade (eastern black nightshade, Solanum ptycanthum), cocklebur (common cocklebur, Xanthium strumarium), cupgrass, woolly (woolly cupgrass, Eriochloa villosa), bermudagrass (Cynodon dactylon), sunflower, (common oilseed sunflower, Helianthus annuus), Russian thistle (Salsola kali), and velvetleaf (Abutilon theophrasti) were planted into a blend of loam soil and sand and treated preemergence with test chemicals formulated in a non-phytotoxic solvent mixture which included a surfactant.
(§2) At the same time, plants selected from these crop and weed species and also barley, winter (winter barley, Hordeum vulgare), windgrass (Apera spica-venti), chickweed (common chickweed, Stellaria media), deadnettle (henbit deadnettle, Lamium amplexicaule), and canarygrass (littleseed canarygrass, Phalaris minor) were planted in pots containing Redi-Earth® planting medium (Scotts Company, 14111 Scottslawn Road, Marysville, Ohio 43041) comprising spaghnum peat moss, vermiculite, wetting agent and starter nutrients and treated with postemergence applications of test chemicals formulated in the same manner. Plants ranged in height from 2 to 18 cm (1- to 4-leaf stage) for postemergence treatments. Treated plants and controls were maintained in a greenhouse for 13 to 15 days, after which time all species were compared to controls and visually evaluated. Plant response ratings, summarized in Table C, are based on a scale of 0 to 100 where 0 is no effect and 100 is complete control. A dash (-) response means no test result.

[3] = test system: goosegrass; test: Test C preemergence; type: in vivo, Eleusine indica; settings: for Goosegrass plant response rating: preemergence, scale 0 (no effect) to 100 (complete control); for Plant response rating, Goosegrass: Preemergence, 31 g ai/ha, scale 0 to 100, 0 no effect, 100 complete control
Text: as §1, §2

[4] = test system: cocklebur; test: Test C postemergence; type: in vivo, Xanthium strumarium; settings: for Plant response rating (0 to 100), Cocklebur: postemergence; for Plant response rating, Cocklebur: Postemergence, scale 0 to 100 (0 no effect, 100 complete control)
Text: as §1, §2

[5] = test system: cupgrass, woolly; test: Test C postemergence; type: in vivo, Eriochloa villosa; settings: for Plant response rating (0 to 100), Cupgrass, Woolly: postemergence; for Plant response rating, Cupgrass, Woolly: Postemergence, scale 0 to 100 (0 no effect, 100 complete control)
Text: as §1, §2

[6] = test system: foxtail, green; test: Test C postemergence; type: in vivo, Setaria viridis; settings: for Plant response rating (0 to 100), Foxtail, Green: postemergence; for Plant response rating, Foxtail, Green: Postemergence, scale 0 to 100 (0 no effect, 100 complete control)
Text: as §1, §2

[7] = 31 g ai/ha, scale 0 to 100 (0 no effect, 100 complete control)
[8] = 62 g ai/ha, scale 0 to 100 (0 no effect, 100 complete control)
[9] = 125 g ai/ha, scale 0 to 100 (0 no effect, 100 complete control)
[10] = 250 g ai/ha, scale 0 to 100 (0 no effect, 100 complete control)

Row | Compound | Plant response rating, Russian Thistle ([1]; 16 g ai/ha, scale 0-100) | Plant response rating, Russian Thistle [1, 7] | Plant response rating, Russian Thistle [1, 8] | Plant response rating, Russian Thistle [1, 9] | Plant response rating, Russian Thistle [1, 10] | Nightshade plant response rating ([2]; 62 g ai/ha) | Nightshade plant response rating ([2]; 125 g ai/ha) | Nightshade plant response rating ([2]; 250 g ai/ha) | Goosegrass plant response rating ([3]; 62 g ai/ha) | Goosegrass plant response rating ([3]; 125 g ai/ha) | Goosegrass plant response rating ([3]; 250 g ai/ha) | Plant response rating, Goosegrass [3] | Plant response rating (0 to 100), Cocklebur ([4]; 250 g ai/ha) | Plant response rating, Cocklebur ([4]; 31 g ai/ha, 13 to 15 days) | Plant response rating, Cocklebur ([4]; 62 g ai/ha) | Plant response rating (0 to 100), Cupgrass, Woolly ([5]; 125 g ai/ha) | Plant response rating (0 to 100), Cupgrass, Woolly ([5]; 250 g ai/ha) | Plant response rating, Cupgrass, Woolly ([5]; 31 g ai/ha, 13 to 15 days) | Plant response rating, Cupgrass, Woolly ([5]; 62 g ai/ha) | Plant response rating (0 to 100), Foxtail, Green ([6]; 125 g ai/ha) | further results
1 | Clc1cnc(Oc2ccccc2-n2cc(Cl)cn2)nc1 [Compound 3] | 0 | 10 | 10 | 10 | 20 | – | – | – | – | – | – | – | – | – | – | – | – | – | – | – | –
2 | Clc1cnc(Oc2ccccc2-n2cc(Br)cn2)nc1 [Compound 7, 2-[2-(4-bromo-1H-pyrazol-1-yl)phenoxy]-5-chloropyrimidine] | 0 | 0 | 30 | 30 | 70 | 95 | 95 | 98 | 85 | 95 | 100 | 65 | 80 | 35 | 45 | 25 | 25 | 10 | 20 | 50 | Plant response rating, Nightshade [2]: 80; Plant response rating (0 to 100), Cocklebur ([4]; 125 g ai/ha): 55; Plant response rating (0 to 100), Foxtail, Green ([6]; 250 g ai/ha): 98; Plant response rating, Foxtail, Green ([6]; 31 g ai/ha, 13 to 15 days): 0
3 | Fc1cnc(Oc2ccccc2-n2cc(Br)cn2)nc1 [Compound 10, 2-[2-(4-bromo-1H-pyrazol-1-yl)phenoxy]-5-fluoropyrimidine] | – | – | – | – | – | – | – | – | – | – | – | – | 100 | 45 | 55 | 5 | 15 | 0 | 5 | 0 | Plant response rating (0 to 100), Cocklebur ([4]; 125 g ai/ha): 55; Plant response rating (0 to 100), Foxtail, Green ([6]; 250 g ai/ha): 30; Plant response rating, Foxtail, Green ([6]; 31 g ai/ha, 13 to 15 days): 0; Plant response rating, Foxtail, Green ([6]; 62 g ai/ha): 0
4 | FC(F)(F)c1cnn(-c2ccccc2Oc2ncc(Cl)cn2)c1 [Compound 16] | – | – | – | – | – | 65 | 80 | 98 | 98 | 100 | 100 | 75 | 80 | 50 | 55 | 20 | 30 | 5 | 15 | 30 | Plant response rating, Nightshade [2]: 20; Plant response rating (0 to 100), Foxtail, Green ([6]; 250 g ai/ha): 100; Plant response rating, Foxtail, Green ([6]; 31 g ai/ha, 13 to 15 days): 10; Plant response rating, Foxtail, Green ([6]; 62 g ai/ha): 30
5 | FC(F)(F)c1cnn(-c2ccccc2Oc2ncc(Br)cn2)c1 [Compound 18, 5-bromo-2-[2-[4-(trifluoromethyl)-1H-pyrazol-1-yl]phenoxy]pyrimidine] | 10 | 5 | 50 | 60 | 100 | 30 | 80 | 95 | 85 | 95 | 100 | 75 | – | – | – | – | – | – | – | – | –
6 | N#Cc1cccc(Oc2ncc(Cl)cn2)c1-n1cc(-n2ccc(C(F)(F)F)n2)cn1 [Compound 284] | – | – | 75 | 85 | 95 | – | – | – | – | – | – | – | – | – | – | – | – | – | – | – | Plant response rating, Russian Thistle ([1]; 31 g ai/ha, scale 0-100): 65
